Blank lines part the entries; values can stand above or below the molecule they belong to.
Legend:
cholesterol-fed rat = assay: Serum cholesterol lowering action in cholesterol-fed rat; type: in vivo; conditions: for Reduction % of serum cholesterol value: cholesterol-fed rat, value to control
Procedure: Male Splague-Dawley rats weighing 300˜500 g (Nihon SLC Co. Ltd.) were fed MF-2 chow (Nihon Crea Co. Ltd.) until study onset. At the study onset, the chow was changed to MF-2 chow containing 1% cholesterol and 0.5% cholic acid. […] Twenty hours after the last administration, blood was collected from the abdominal aorta under ether anaesthesia, and serum was separated. The cholesterol value was measured using Cholesterol E Test Wako (Wako Pure Chemical Co. Ltd.). […] The experimental 5 and 6 indicates the combined dosage examples in the present invention. Each reduction percent is shown as the value to control.
Except of the use of compound 37 instead of compound 56, quietly same experiment to pharmacological experiment 1 was carried out. Each reduction % is shown as the value to control.

[1] = alone, 0.03 mg/kg/day, once a day for 7 days
[2] = alone, 0.3 mg/kg/day, once a day for 7 days
[3] = alone, 1 mg/kg/day, once a day for 7 days
[4] = combined dosage: compound 0.3 mg/kg/day + atorvastatin 1 mg/kg/day
[5] = combined dosage: compound 0.3 mg/kg/day + atorvastatin 1 mg/kg/day, 7 days
[6] = combined dosage: compound 0.3 mg/kg/day + fenofibrate 10 mg/kg/day
[7] = combined dosage: compound 0.3 mg/kg/day + fenofibrate 10 mg/kg/day, 7 days

melting point: 80 to 82 °C
SMILES: O=C1[C@H](CC[C@H](O)c2ccc(F)cc2)[C@@H](c2ccc([C@@H]3O[C@H](CO)[C@@H](O)[C@H](O)[C@H]3O)cc2)N1c1ccccc1 [Compound 37]
Reduction % of serum cholesterol value (cholesterol-fed rat; [1]): 5.6%
Reduction % of serum cholesterol value (cholesterol-fed rat; [2]): 18.0%
Reduction % of serum cholesterol value (cholesterol-fed rat; [3]): 31.0%
Combination effect on reduction % of serum cholesterol versus sum of agents alone (cholesterol-fed rat; [4]): synergistic effect
Reduction % of serum cholesterol value (cholesterol-fed rat; [5]): 31.5%
Combination effect on reduction % of serum cholesterol versus sum of agents alone (cholesterol-fed rat; [6]): synergistic effect
Reduction % of serum cholesterol value (cholesterol-fed rat; [7]): 39.5%

SMILES: CC(C)c1c(C(=O)Nc2ccccc2)c(-c2ccccc2)c(-c2ccc(F)cc2)n1CC[C@@H](O)C[C@@H](O)CC(=O)O [Atorvastatin, atorvastatin, reference compound]
Reduction % of serum cholesterol value (cholesterol-fed rat; [3]): 6.2%

melting point: 82 to 84 °C
SMILES: O=C1[C@H](CC[C@H](O)c2ccc(F)cc2)[C@@H](c2ccc(CC[C@@H]3O[C@H](CO)[C@@H](O)[C@H](O)[C@H]3O)cc2)N1c1ccccc1 [Compound 56]
Reduction % of serum cholesterol value (cholesterol-fed rat; [1]): 1.9%
Reduction % of serum cholesterol value (cholesterol-fed rat; [2]): 6.9%
Reduction % of serum cholesterol value (cholesterol-fed rat; [3]): 33.5%
Combination effect on reduction % of serum cholesterol versus sum of agents alone (cholesterol-fed rat; [4]): synergistic effect
Reduction % of serum cholesterol value (cholesterol-fed rat; [5]): 20.2%
Combination effect on reduction % of serum cholesterol versus sum of agents alone (cholesterol-fed rat; [6]): synergistic effect
Reduction % of serum cholesterol value (cholesterol-fed rat; [7]): 41.3%

melting point: 96 to 98 °C
SMILES: Cc1ccc(N2C(=O)[C@H](CCOc3ccc(F)cc3)[C@H]2c2ccc(C[C@@H]3O[C@H](CO)[C@@H](O)[C@H](O)[C@H]3O)cc2)cc1 [Compound 43]

melting point: 79 to 81 °C
SMILES: O=C1[C@H](CC[C@H](O)c2ccc(F)cc2)[C@@H](c2ccc(/C=C/CC[C@@H]3O[C@H](CO)[C@@H](O)[C@H](O)[C@H]3O)cc2)N1c1ccc(F)cc1 [Compound 52]

melting point: 116 to 118 °C
SMILES: Cc1ccc(N2C(=O)[C@H](CC[C@H](O)c3ccc(F)cc3)[C@H]2c2ccc(CC[C@@H]3O[C@H](CO)[C@@H](O)[C@H](O)[C@H]3O)cc2)cc1 [Compound 57]

melting point: 66 to 68 °C
SMILES: O=C1[C@H](CC[C@H](O)c2ccc(F)cc2)[C@@H](c2ccc(CCCCC[C@@H]3O[C@H](CO)[C@@H](O)[C@H](O)[C@H]3O)cc2)N1c1ccc(F)cc1 [Compound 55]

melting point: 64 to 65 °C
SMILES: O=C1[C@H](CCOc2ccc(F)cc2)[C@@H](c2ccc(OC[C@@H]3O[C@H](CO)[C@@H](O)[C@H](O)[C@H]3O)cc2)N1c1ccc(F)cc1 [Compound 15]

melting point: 78 to 80 °C
SMILES: O=C(CC[C@H]1C(=O)N(c2ccc(F)cc2)[C@@H]1c1ccc(C[C@@H]2O[C@H](CO)[C@@H](O)[C@H](O)[C@H]2O)cc1)c1ccc(F)cc1 [Compound 26]

melting point: 115 to 117 °C
SMILES: O=C1[C@H](CC[C@H](O)c2ccc(F)cc2)[C@@H](c2ccc(C[C@@H]3O[C@H](CO)[C@@H](O)[C@H](O)[C@H]3O)cc2)N1c1ccc(F)cc1 [Compound 22]

melting point: 84 to 86 °C
SMILES: O=C1[C@H](CCCc2ccccc2)[C@@H](c2ccc(C[C@@H]3O[C@H](CO)[C@@H](O)[C@H](O)[C@H]3O)cc2)N1c1ccccc1 [Compound 44]

From patent US7795229B2, “Serum cholesterol lowering agent or preventative or therapeutic agent for atherosclerosis” (Kotobuki Pharmaceutical Co., Ltd., priority 2003, dated 2010)
